Results on 1 molecule are retold here after publication PMC2360532, “Somatostatin receptor expression, tumour response, and quality of life in patients with advanced hepatocellular carcinoma treated with long-acting octreotide” (British Journal of Cancer, 2006).

The conditions of data set [1]: patients who remained on the study for 6 months or more.
Text: (§1) Blood was also sampled for octreotide pharmacokinetics and assessment of chromogranin A levels before the 4th and 7th doses.
(§2) Samples were taken immediately before the 4th and 7th doses of octreotide (weeks 12 and 24 of treatment). These time points were selected in order to assess trough octreotide plasma concentrations at steady state after three doses and to determine potential octreotide accumulation in this cirrhotic population with more continued dosing. Additional samples were also collected in some cases. […] The lower limit of quantification was 50 pg ml^−1 for a 50 μl plasma sample.
For data set [2] the following is noted: cited from earlier work. The source says: Safety is important for people with comorbidities. There is limited information available about the elimination kinetics of octreotide in cirrhosis. […] Since pharmacokinetics may be altered in patients with cirrhosis, it was considered necessary to determine whether liver impairment predisposes to toxicity and ...

For data set [3], the system named is patients with advanced HCC. The experiment in a line: Serious adverse events and tolerability. The format is in vivo, human. The method, then:
The planned duration of treatment was 12 months in the absence of disease progression, unacceptable toxicity, or withdrawal at the patient's or doctor's discretion. An extension phase allowed treatment to continue beyond 12 months on an individual basis at the discretion of the principal investigator.
Subjects were seen monthly for clinical review, blood tests, and administration of the study drug. Response was assessed using the RECIST (response evaluation criteria in solid tumours) criteria ([Therasse et al, 2000]). Radiological assessment was undertaken 3-monthly and any partial or complete responses were confirmed 1 month later.

For the next data set, the system named is HCC. The note with it: ref Kouroumalis et al (1998), cited from earlier work. The text has this: High-affinity somatostatin receptors capable of binding octreotide are present in approximately 40% of HCC, and not in adjacent liver. However, the numbers of high-affinity receptors are lower than reported for neuroendocrine tumours ([Reubi et al, 1999]). Somatostatin is a potent inhibitor of several growth factors and angioneogenesis ([Flori ... || Most patients with advanced HCC have a dismal prognosis ([Leung and Johnson, 2001]). However, a treatment that benefits only a subset of patients may still be clinically worthwhile. The very different outcomes in the randomised trials by Kouroumalis and Yuen probably reflect differences in patient selection ([Kouroumalis et al, 1998]; [Yuen et al, 2002]). The Yuen study had subjects with more advanced disease, a higher proportion with viral hepatitis, and a median survival of only 2 months. Our study population was more similar to the Kouroumalis study population (Table 4) and our median survi ...

A further data set can be described thus: clinical. The settings on record: human, plasma, im, 20 mg.
Where [4] appears, read: short-acting form, ref Jenkins et al (1998).

Text for clinical: as §1, §2

As for `C[C@@H](O)[C@@H]1NC(=O)[C@H](CCCCN)NC(=O)[C@@H](Cc2c[nH]c3ccccc23)NC(=O)[C@H](Cc2ccccc2)NC(=O)[C@@H](NC(=O)[C@H](N)Cc2ccccc2)CSSC[C@@H](C(=O)N[C@H](CO)[C@@H](C)O)NC1=O` [octreotide], the “Accumulation of octreotide in plasma” value in data set [1] is listed as “no evidence of accumulation”. For the same molecule, the Plasma concentrations in data set [2] (30 mg i.m. dose, six patients with acromegaly (noncirrhotic), ref Stewart et al, 1995) is 1.682 ± 0.174 ng/mL. In data set [2] (setting [4]), the “Clearance in patients with cirrhosis” value is reported as “reduced” and the “Half-life in patients with cirrhosis” value is “prolonged”. Further, the “Serious adverse events attributed to the drug” value in data set [3] (20 mg i.m. every 28 days, advanced HCC) is “No serious adverse events were attributed”. For the same molecule, the “Treatment stopped because of adverse effects (cramps), cases” value in data set [3] (63 patients) is “one”. Moreover, the Median survival in the data set on HCC (short-acting octreotide arm vs 4 months in untreated control, HCC) is 13 months. For the same molecule, the 12-month survival with HCC (short-acting octreotide arm vs 13% in untreated control, P=0.002) is 56%. In the data set “clinical”, this molecule came in with a level at 2016 h of 2.21 ng/mL, a level at 4032 h of 3.38 ng/mL and a level at 6480 h of 3.24 ng/mL.
